The values below come from patent EP2592085B1, “Thiazolo[3,2-a][1,3]diazepine derivatives and pharmaceutical compositions containing the same as anticonvulsant agents and method for their preparation” (King Saud University, priority 2011, dated 2013).

Data set [1] has as its system Swiss albino mice. Description: animal or person. The format is in vivo. The note with it: for ED50: Mus musculus, ip, PTZ, median effective dose, log-probit method; for % Protection: PTZ 100 mg/kg i.p. given 30 min after compound i.p., dose SGH-35 200 mg/kg (0.78 mmol/kg), SGH-40 100 mg/kg (0.38 mmol/kg), 4 animals; for PI: male, Swiss albino, mouse, in vivo. The protocol:
(§1) Adult male Swiss albino mice (22-28 g), approximately 10-week old, were used to conduct the anticonvulsant evaluation. They were housed in cages and kept at a temperature of 20 ± 2°C and a relative humidity of 55 ± 5% with a light-dark cycle of 12 h and fed with standard diet and water ad libitum. Compounds of the formula 1 have been dissolved in dimethylsulfoxide and administered at dose levels of 25, 50, 100 and 200 mgl/kg intraperitoneal (i.p.). Sodium valproate was freshly dissolved in 0.9 % NaCl and used at dose level of 200 mg/kg (1.38 mmol/kg) i.p., 30 min after the test compounds as a positive control. A control group of mice was included and received intraperitoneal (i.p.) injections of the test compounds' vehicle. […] Picrotoxin (pic) was freshly dissolved in 1 ml 0.1N warmed HCl and the final volume was made up with 0.9 % NaCl. It has been used at dose level of 10 mg/kg i.p. and was given 30 min after the test compounds.
(§2) The anticonvulsant activity of compounds of the formula 1 in mice was measured using Pentylenetetrazole (PTZ) seizure threshold test (White, H.S. et al. In Antiepileptic Drugs, 4th ed.; L,evy, R.H. et al., Eds, Raven: New York, 1995, pp 99-121). The active compounds of the formula 1 were further tested against maximal electroshock seizure (MES), and picrotoxin induced clonic convulsions, to explore the involvement of GABA-ergic receptors in their anticonvulsant activity. The effect of compounds of the formula 1 on motor performance was studied by chimney test (Dauge, V. et al. Neuropsychopharmacology 2001, 25, 690-98). Median effective (ED50), and median sedative (TD50) were calculated.
Pentylenetetrazole (PTZ) seizure threshold test is used to evaluate the potential anticonvulsant activity of compounds of the formula 1 (White, H.S. Et al. In Antiepileptic Drugs, 4th ed.; Levy, R.H. et al., Eds, Raven: New York, 1995, pp 99-121). Each compound was tested in 4 mice groups (Swiss albino mice, 25 g body weight) for each dose level (25, 50, 100 and 200 mg/kg) and was given i.p. 30 min later, animals were received PTZ (100 mg./kg, i.p.) and observed for 30 min. A single 5 seconds episode of clonic spasms was taken as a threshold seizure. SGH-35 and SGH-40 produced 100% protection against PTZ-induced seizures, Table 1. Table 1: ED50, TD50, PI, LD50 and TI for SGH-35 and SGH-40.
(§3) In each of the chemical and the electrical methods described above, Swiss albino mice were divided into 4 groups (N = 4 animals). Each group was injected (i.p.) with one of the four selected doses that have proven to obtain a variable percentage of protection […] before the convulsants. The effective dose 50 (ED50) i.e. the dose that protected half of the animals was then calculated using the log-probit method (White, H.S. et al. In Antiepileptic Drugs, 4th ed.; Levy, R.H.et al., Eds, Raven: New York, 1995, pp 99-121).

In data set [2] the test system is Swiss albino mice. Kind of data set: Maximal electroshock (MES) seizure test. The conditions noted are these: for % Protection: MES applied 30 min after compound i.p., dose SGH-35 200 mg/kg (0.78 mmol/kg), SGH-40 100 mg/kg (0.38 mmol/kg), 4 animals; for ED50: Mus musculus, ip, MES, median effective dose, log-probit method; for PI: Protective index = TD50/ED50, MES ED50. It counts as in vivo. Here is the method:
as §2
The maximal electroshock (MES) seizure is one of the electrical test used to evaluate anticonvulsant activity (White, H.S. et al. In Antiepileptic Drugs, 4th ed.; Levy, R.H. et al., Eds, Raven New York, 1995, pp 99-121). […] Swiss albino mice (25 g body weight) were injected with 25, 50, 100 and 200 mg/kg of SGH-35 and SGH-40 i.p. 30 min later, mice were restrained by hand and subjected to electric shock through their ears, and released immediately following electrical stimulation, to permit observation of the maximal seizure. The maximal seizure typically consists of a short period of initial tonic flexioni and a prolonged period of tonic extension (especially the hind limb). Protection was defined as complete absence of hind limb tonic extension (Table 1).
as §3

For data set [3], the system named is Swiss albino mice. Kind of data set: animal or person. The format is in vivo. The note with it: for ED50: Mus musculus, ip; for % Protection: Picrotoxin (8 mg/kg, IP) given 30 min after compound i.p., dose SGH-35 200 mg/kg (0.78 mmol/kg), SGH-40 100 mg/kg (0.38 mmol/kg), 4 animals; for PI: Protective index = TD50/ED50, Pic ED50. Here is the method: as §1, §2
Swiss albino mice (25 g body weight) were injected with 25, 50, 100 and 200 mg/kg of SGH-35 and SGH-40 (4 mice, i.p.). 30 min later, animals were injected sc with Pic (10 mg/kg) and observed for 30 min and the percentage protection against convulsive seizures for each compound was calculated (Table I).
as §3

Data set [4] in a line: Minimal neurotoxicity (chimney test), motor performance. The format is in vivo, mice. The conditions noted are these: Swiss albino, mouse, in vivo, ip; median sedative dose; chimney test at 15 and 25 min after i.p. administration. The protocol:
as §2
(§4) The effect of SGH-35 and SGH-40 on motor performance was studied by chimney test (Dauge, V. et al. Neuropsychopharmacology 2001, 25, 690-98). At 15 and 25 min after i.p. administration of compounds SGH-35 and SGH-40, the inability of mice to climb up backwards in a glass tube of 25 cm length and 3 cm inner diameter within 30 sec was recorded and taken as a measure of neurological deficits. Normal mice climb up in 5-10 sec. The dose that impaired the motor coordination in 50% of the animals tested was labeled as the median toxin dose 50 (TD50).

For data set [5], the system named is Swiss albino mice. Described as above. The format is in vivo. The note with it: median sedative dose; chimney test at 15 and 25 min after i.p. administration. Here is the method:
as §2, §4

A short description of data set [6]: Acute toxicity determination (LD50). The format is in vivo. The conditions noted are these: Albino Swiss, mouse, in vivo, ip, mice observed for 72 hours. The protocol:
(§5) The acute toxicity determination (LD50) for compounds of formula 1 was performed. Compounds were given intraperitoneally (i.p.) in doses ranging from 0.1-5 mmol/kg. […] All behavioral changes and death during the observation periods were recorded. The percentage of death at each dose level was then calculated, and the LD50 values were obtained (Ghosh, M., Fundamentals of Experimental Pharmacology, Scientific Book Agency, Calcutta. 1984, pp 153-158, 187-189). The protective index (PI) and therapeutic index (TI) of each compound were calculated.
(§6) Initially the approximate LD100 of each test compound was determined. Albino Swiss mice (25 g body weight) were then divided into 4 groups (6 mice each). Each group was then injected with one of 4 selected doses the highest being the LD100 dose. The animals were then observed closely for 4 hours and then occasionally for 72 hours. The percentage of death in each group was then calculated. The LD50 doses were then calculated using the Profit method (Ghosh; M., Fundamentals of Experimental Pharmacology, Scientific Book Agency, Calcutta. 1984, pp 153-158, 187-189).
(§7) The protective index (PI) - i.e. the value that indicates the margin of safety and tolerance of the test compound was calculated by the formula: Protective index (PI) = TD50/ED50. The Therapeutic Index was calculated by the formula: Therepeutic index (TI) = LD50/ED50 (Löscher, W. et al. Epilepsy Res. 1991, 9, 1-10).

Data set [7] concerns Albino Swiss mice. Kind of data set: Acute toxicity determination (LD50). The note with it: Therapeutic index = LD50/ED50 (values match the PTZ ED50). It counts as in vivo. Here is the method: as §5, §6, §7

As for `CCOC(=O)C1=C(C)N2CCCC(=O)N=C2S1` [SGH-35, Ethyl 3-methyl-8-oxo-5,6,7,8-tetrahydro-thiarolo[3,2-a][1,3]diazepinie-2-carboxylate], the 50% effective dose (ED50) in data set [1] stood at 127 ± 9.3 mg/kg; in data set [2] it was 90 ± 5.7 mg/kg; in data set [3], 148 ± 11.1 mg/kg. Besides, the “% Protection” value in data set [1], in data set [2] and in data set [3] was 100% each time. For the same compound, the PI in data set [1] was 1.57; in data set [2], 2.22; in data set [3], 1.35. Moreover, the TD50 in data set [4] and in data set [5] was 200 ± 12.3 mg/kg in each case. The compound further came in with a 50% lethal dose (LD50) at 72 h in data set [6] of 670 mg/kg. This compound showed a TI in data set [7] of 5.28.
For the compound `CC1=C(Br)SC2=NC(=O)CCCN21` [SGH-40, 2-Bromo-3-methyl-6,7-dihydro-thiazolo[3,2-a][1,3]diazepin-8(5H)-one], the ED50 in data set [1] came out at 112 ± 3.9 mg/kg; in data set [2] it was 78 ± 4.1 mg/kg; in data set [3] it was 129 ± 6.1 mg/kg. Moreover, the “% Protection” value in data set [1], in data set [2] and in data set [3] was 100% throughout. The PI in data set [1] is recorded as 1.51; in data set [2], 2.17; in data set [3], 1.31. In addition, the TD50 in data set [4] and in data set [5] was 170 ± 6.9 mg/kg each time. For the same compound, the LD50 at 72 h in data set [6] came out at 640 mg/kg. The TI in data set [7] was found to be 5.71.
